Measured values as given in article PMC6158167 (Nature Communications, 2018).

Tests used:
[1] = tested on: ShHTL1-AtMAX2 interaction; details: Y2H dilution series, 5 μM ligand
From the text: (§1) Full-length sequences of ShD14, ShHTL1, ShHTL3, ShHTL4, ShHTL7, and AtHTL were cloned into the pGBKT7 vector as bait (Clontech), and the coding regions of ShMAX2 and AtMAX2 were cloned into the pGADT7 vector as prey (Clontech). MAX2 was supposed to be unstable without ASK1. Therefore, AtASK1 was cloned into the N terminus of ShMAX2 and AtMAX2 with a 16-residue linker for co-expression. The bait and prey plasmids were co-transformed into the yeast (Saccharomyces cerevisiae) strain Y2HGold (Clontech) by the lithium acetate-mediated method. The presence of both plasmids was confirmed by growth on SD/-Leu/-Trp (-LT) plates. […] The plates were incubated for 5 days at 30 °C.
(§2) and AtHTL were detected using an anti-GST antibody, as indicated by the black arrows. (b)
(§3) 1/10, 1/20, 1/50, 1/100, 1/1000) of transformed yeast cells was plated on control medium (SD/-
(§4) Leu/-Trp; -LT) and selective medium (SD/-Leu/-Trp/-His/-Ade; -LTHA) in the absence or
(§5) (1 picture or pasted object on this page, not shown here)

[2] = tested on: ShHTL1–ShMAX2 interaction; details: Y2H dilution series, 5 μM ligand
From the text: as §1, §2, §3, §4, §5

[3] = tested on: ShHTL1–ShMAX2 interaction; experiment: In vitro pull-down ShHTL1-ShMAX2; type: binding, Striga hermonthica; details: 50 μM ligand
Description: Ni-NTA pull-down assays were performed with purified ShMAX2 or AtMAX2 as the bait and […]14, or GST-AtD14 as the prey. The molecular weight of the HTL/D14 proteins is nearly the same as that of ASK1; therefore, the HTL/D14 proteins were fused to GST, increasing their molecular weight for detection on SDS-PAGE gels. […] The protein complexes were then eluted with 100 μL of elution buffer containing 50 mM Bis-Tris, pH 6.8, 500 mM NaCl, and 500 mM imidazole and subjected to SDS-PAGE analysis. Samples of […] […] also subjected to western blotting after separation by SDS-PAGE. The proteins were transferred from the SDS-PAGE gel to a polyvinylidene fluoride (PVDF) membrane (Merck Millipore). […] Next, the membrane was incubated with anti-GST antibody as the primary antibody (71097-3; Novagen; diluted 1:10,000) at 25 °C for 1.5 h and then washed 3 times with TBST buffer. Anti-mouse antibody (32430; Thermo Scientific; diluted 1:4000) conjugated to horseradish peroxidase was used as the secondary antibody. After incubation with the secondary antibody at 25 °C for 1.5 h, the membrane was washed 3 times. For detection, SuperSignal West Femto Maximum Sensitivity Substrate (Thermo Scientific) was used as the chemiluminescence substrate and ImageQuant LAS 4000 mini (GE Healthcare) was used for imaging.

ShHTL3 and ShMAX2 = experiment: In vitro pull-down ShHTL3-ShMAX2; type: binding, Striga hermonthica; details: 50 μM ligand
Description: Ni-NTA pull-down assays were performed with purified ShMAX2 or AtMAX2 as the bait and […]14, or GST-AtD14 as the prey. The molecular weight of the HTL/D14 proteins is nearly the same as that of ASK1; therefore, the HTL/D14 proteins were fused to GST, increasing their molecular weight for detection on SDS-PAGE gels. […] The protein complexes were then eluted with 100 μL of elution buffer containing 50 mM Bis-Tris, pH 6.8, 500 mM NaCl, and 500 mM imidazole and subjected to SDS-PAGE analysis.

Cc1c2ccocc-2oc1=O [KAR1, 3-methyl-2H-furo [2,3-c] pyran-2-one]
ligand effect on ShHTL1-AtMAX2 interaction [1]: significant difference between the control and the presence of KAR1 or rac-GR24 was not observed | ligand effect on ShHTL1-ShMAX2 interaction [2]: significant difference between the control and the presence of KAR1 or rac-GR24 was not observed | ShHTL1-ShMAX2 interaction in the presence of ligand [3]: no direct interaction with ShMAX2 in the presence of KAR1 | ShHTL3-ShMAX2 interaction in the presence of ligand (ShHTL3 and ShMAX2): no direct interaction with ShMAX2 in the presence of KAR1
